This is an account of results in US20240279205A1, “NOVEL BENZIMIDAZOLE DERIVATIVE” (Carna Biosciences, Inc., priority 2020, published 2024).

Where a name gives a salt, the structure may show the parent alone.

One assay deals with T1, human STING (hSTING) (Homo sapiens, UniProt Q86WV6).
T1 construct: host or cells: HEK-Blue ISG cells (HEK293-derived SEAP reporter line)
T1 sequence (Q86WV6 whole entry H232R): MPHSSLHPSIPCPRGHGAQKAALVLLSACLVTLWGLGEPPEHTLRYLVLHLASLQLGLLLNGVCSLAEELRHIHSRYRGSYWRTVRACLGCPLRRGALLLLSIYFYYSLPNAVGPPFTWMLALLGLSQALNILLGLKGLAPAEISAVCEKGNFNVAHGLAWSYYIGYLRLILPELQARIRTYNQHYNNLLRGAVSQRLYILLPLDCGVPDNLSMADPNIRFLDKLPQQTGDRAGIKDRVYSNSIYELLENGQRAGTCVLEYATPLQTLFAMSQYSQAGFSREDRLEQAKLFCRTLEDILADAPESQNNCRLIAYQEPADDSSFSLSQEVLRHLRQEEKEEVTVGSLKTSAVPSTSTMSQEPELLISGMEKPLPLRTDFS
Description: Inhibition test of intracellular human STING (hSTING) pathway using SEAP reporter cells (HEK-Blue ISG), stimulation with Compound 3. It is filed as cell-based. Set-up: hSTING inhibitory activity: scale not given here. The note with it: Compound 3 10 nM stimulation, 21 hours. On the procedure: Inhibition test of intracellular human STING (hSTING) pathway using reporter cells
Since STING activates the transcription factor IRF3 upon ligand stimulation, the activity of STING can be evaluated by a reporter assay using a secretory alkaline phosphatase (SEAP reporter) integrated downstream of an IRF-inducible promoter.
That is, the hSTING inhibitory activity of the test compound was evaluated using HEK-Blue™MISG cells (manufactured by Invivogen, #hkb-isg-1) incorporating a SEAP reporter. Activation of hSTING was performed by stimulation with the small molecule ligand Compound 3 as described in the literature (Ramanjulu, J. M., et al., Nature. 2018, 564 (7736), 439-443). HEK-Blue™MISG cells were seeded in a 96-well plate and cultured overnight at 37° C. in a 5% CO2 incubator. To each well of this cell culture plate, a test compound solution adjusted to a final concentration of 0.1 to 10 µM of the test compound was added, cultured for 1 hour in a CO2 incubator, and then Compound 3 (final concentration 10 nM) was added and further cultured in a CO2 incubator for 21 hours. After collecting the culture supernatant of each well, the reporter activity was measured by color development reaction with alkaline phosphatase.
The reporter activity of the test compound non-addition and Compound 3 addition group was set to 100%, and the reporter activity of the test compound non-addition and Compound 3 non-addition group was set to 0%. The IC50 value was determined by regression analysis of the inhibitory rate determined from the reporter activity at each compound concentration and the test compound concentration (logarithm).
With `Fc1cc(C2CCOCC2)cc2nc(Nc3c[nH]c4ccc(Cl)nc34)[nH]c12` [Embodiment 175, N-(5-Chloro-1H-pyrrolo[3,2-b]pyridin-3-yl)-7-fluoro-5-(tetrahydro-2H-pyran-4-yl)-1H-benzo[d]imidazol-2-amine], the hSTING inhibitory activity result is “* *”.
The same measure, in the same setting: the entry for `O=C(Nc1ccccc1)c1ccc2[nH]cc(Nc3nc4cc(Oc5ccccc5)ccc4[nH]3)c2c1` [Example 30, 3-[(5-phenoxy-1H-benzo[d]imidazol-2-yl)amino]-N-phenyl-1H-indole-5-carboxamide] is “* *”; for `Cn1c(Nc2c[nH]c3ccc(Br)nc23)nc2cc(Oc3ccccc3)ccc21` [Embodiment 41, N-(5-bromo-1H-pyrrolo[3,2-b]pyridin-3-yl)-1-methyl-5-phenoxy-1H-benzo[d]imidazol-2-amine] it is “* * *”.
On the same count and under the same terms, the entry for `Cn1cc(-c2ccnc3c(Nc4nc5cc(Oc6ccccc6)ccc5[nH]4)c[nH]c23)cn1` [Embodiment 71, N-[7-(1-methyl-1H-pyrazol-4-yl)-1H-pyrrolo[3,2-b]pyridin-3-yl]-5-phenoxy-1H-benzo[d]imidazole-2-amine formate] is “* *”; for `Brc1ccc2[nH]cc(Nc3nc4ccccc4[nH]3)c2c1` [Example 1, N-(5-bromo-1H-indol-3-yl)-1H-benzo[d]imidazol-2-amine] it is “* *”; for `Clc1ccc2[nH]cc(Nc3nc4cc(-c5cccc(CN6CCOCC6)c5)ccc4[nH]3)c2n1` [Embodiment 99, N-(5-Chloro-1H-pyrrolo[3,2-b]pyridin-3-yl)-5-[3-(morpholinomethyl)phenyl]-1H-benzo[d] imidazol-2-amine] it is “* *”.
Same read-out and setting: the entry for `CN(C)n1c(Nc2c[nH]c3cc(F)c(F)cc23)nc2cc(C(F)(F)F)cc(F)c21` [Embodiment 279, N2-(5,6-difluoro-1H-indol-3-yl)-7-fluoro-N1,N1-dimethyl-5-(trifluoromethyl)-1H-benzo[d] imidazole-1,2-diamine] is “* *”; for `CNn1c(Nc2c[nH]c3cc(F)c(F)cc23)nc2cc(C(F)(F)F)cc(F)c21` [Embodiment 273, N2-(5,6-difluoro-1H-indol-3-yl)-7-fluoro-N1-methyl-5-(trifluoromethyl)-1H-benzo[d]imidazole-1,2-diamine] it is “* * *”; for `CNn1c(Nc2c[nH]c3ccc(C)cc23)nc2cc(C(F)(F)F)cc(F)c21` [Embodiment 277, 7-fluoro-N1-methyl-N2-(5-methyl-1H-indol-3-yl)-5-(trifluoromethyl)-1H-benzo[d]imidazole-1,2-diamine] it is “* * *”.
In the case of `Brc1cnc2[nH]cc(Nc3nc4cc(Oc5ccccc5)ccc4[nH]3)c2c1` [Example 10, N-(5-bromo-1H-pyrrolo[2,3-b]pyridin-3-yl)-5-phenoxy-1H-benzo[d]imidazol-2-amine], the hSTING inhibitory activity entry is “* *”.
In the case of `O=S(=O)(c1ccccc1)c1ccc2[nH]c(Nc3c[nH]c4ccc(Br)cc34)nc2c1` [Example 23, N-(5-bromo-1H-indol-3-yl)-5-(phenylsulfonyl)-1H-benzo[d]imidazol-2-amine], the hSTING inhibitory activity result is on record as “* *”.
Take `CNn1c(Nc2c[nH]c3ccc(Cl)cc23)nc2cc(C(F)(F)F)cc(F)c21` [Embodiment 271, N2-(5-Chloro-1H-indol-3-yl)-7-fluoro-N1-methyl-5-(trifluoromethyl)-1H-benzo[d]imidazole-1,2-diamine]: the hSTING inhibitory activity entry is “* * *”.

Staying with this assay, now noted: Compound 3 10 nM stimulation, 21 hours, read-out: hSTING inhibitory activity.
With `COc1ccc2nc(Nc3c[nH]c4ccc(Cl)nc34)n(C)c2c1` [Embodiment 161, N-(5-Chloro-1H-pyrrolo[3,2-b]pyridin-3-yl)-6-methoxy-1-methyl-1H-benzo[d]imidazol-2-amine], the IC50 is at least 10 µM.
The same measure, in the same setting: to `Cn1c(Nc2c[nH]c3ccc(Cl)nc23)nc2cc(C3CCOCC3)ccc21` [Embodiment 153, N-(5-chloro-1H-pyrrolo[3,2-b]pyridin-3-yl)-1-methyl-5-(tetrahydro-2H-pyran-4-yl)-1H-benzo[d] imidazol-2-amine] belongs at least 10 µM; to `Clc1ccc2[nH]cc(Nc3nc4ccccc4[nH]3)c2c1` [Example 15, N-(5-chloro-1H-indol-3-yl)-1H-benzo[d]imidazol-2-amine], 1 to 10 µM; to `COCCn1c(Nc2c[nH]c3ccc(Cl)nc23)nc2c(F)cc(F)cc21` [Embodiment 202, N-(5-chloro-1H-pyrrolo[3,2-b]pyridin-3-yl)-4,6-difluoro-1-(2-methoxyethyl)-1H-benzo[d]imidazole-2-amine], at least 10 µM.
The same measure, in the same setting: to `O=C(c1ccc2[nH]cc(Nc3nc4cc(Oc5ccccc5)ccc4[nH]3)c2c1)N1CCOCC1` [Example 28, morpholino {3-[(5-phenoxy-1H-benzo[d]imidazol-2-yl)amino]-1H-indol-5-yl} methanone] belongs at least 10 µM; to `CC(C)n1c(Nc2c[nH]c3ccc(Cl)nc23)nc2cc(Cl)c(Cl)cc21` [Embodiment 132, 5,6-dichloro-N-(5-chloro-1H-pyrrolo[3,2-b]pyridin-3-yl)-1-isopropyl-1H-benzo[d]imidazol-2-amine], 1 to 10 µM; to `Brc1cnc2c(Nc3nc4cc(Oc5ccccc5)ccc4[nH]3)c[nH]c2c1` [Embodiment 49, N-(6-bromo-1H-pyrrolo[3,2-b]pyridin-3-yl)-5-phenoxy-1H-benzo[d]imidazol-2-amine], 1 to 10 µM.
Same read-out and setting: the figure for `Clc1ccc2[nH]cc(Nc3nc4cc5c(cc4[nH]3)OCCO5)c2n1` [Embodiment 141, N-(5-chloro-1H-pyrrolo[3,2-b]pyridin-3-yl)-6,7-dihydro-1H-[1,4] dioxino[2′,3′:4, 5]benzo[1,2-d]imidazol-2-amine] is 1 to 10 µM.
On to `Oc1ccnc2c(Nc3nc4cc(Oc5ccccc5)ccc4[nH]3)c[nH]c12` [Embodiment 76, 3-[(5-phenoxy-1H-benzo[d]imidazol-2-yl)amino]-1H-pyrrolo [3,2-b]pyridin-7-ol formate], for which the IC50 was at least 10 µM.
The same measure, in the same setting: the figure for `CN(C)c1ccnc2c(Nc3nc4cc(Oc5ccccc5)ccc4[nH]3)c[nH]c12` [Embodiment 70, N7,N7-dimethyl-N3-(5-phenoxy-1H-benzo[d]imidazol-2-yl)-1H-pyrrolo[3,2-b]pyridine-3,7-diamine formate] is at least 10 µM; for `Cn1c(Nc2c[nH]c3ccc(Cl)nc23)nc2ccc(F)c(F)c21` [Embodiment 184, N-(5-Chloro-1H-pyrrolo[3,2-b]pyridin-3-yl)-6,7-difluoro-1-methyl-1H-benzo[d]imidazol-2-amine] it is at least 10 µM.
As for `Cc1c(F)ccc2[nH]c(Nc3c[nH]c4ccc(Cl)nc34)nc12` [Embodiment 176, N-(5-Chloro-1H-pyrrolo[3,2-b]pyridin-3-yl)-5-fluoro-4-methyl-1H-benzo[d]imidazol-2-amine formate], the IC50 is 1 to 10 µM.
Still for that read-out and setting: the figure for `COCCn1c(Nc2c[nH]c3ccc(Cl)nc23)nc2cc(Cl)c(Cl)cc21` [Embodiment 110, 5,6-dichloro-N-(5-chloro-1H-pyrrolo[3,2-b]pyridin-3-yl)-1-(2-methoxyethyl)-1H-benzo[d] imidazole-2-amine] is 1 to 10 µM.
On the same count and under the same terms, to `COCCn1c(Nc2c[nH]c3ccc(Br)nc23)nc2cc(Oc3ccccc3)ccc21` [Embodiment 92, N-(5-bromo-1H-pyrrolo[3,2-b]pyridin-3-yl)-1-(2-methoxyethyl)-5-phenoxy-1H-benzo[d]imidazol-2-amine] belongs 1 to 10 µM; to `Clc1ccc2[nH]cc(Nc3nc4c(C5CCOCC5)cccc4[nH]3)c2n1` [Embodiment 150, N-(5-chloro-1H-pyrrolo[3,2-b]pyridin-3-yl)-4-(tetrahydro-2H-pyran-4-yl)-1H-benzo[d]imidazole-2-amine], at least 10 µM; to `Clc1ccc2[nH]cc(Nc3nc4cc(-c5cccnc5)ccc4[nH]3)c2n1` [Embodiment 97, N-(5-Chloro-1H-pyrrolo[3,2-b]pyridin-3-yl)-5-(pyridin-3-yl)-1H-benzo[d]imidazol-2-amine], 1 to 10 µM.
The same measure, in the same setting: the figure for `COCCn1c(Nc2c[nH]c3ccc(Cl)nc23)nc2cccc(C(F)(F)F)c21` [Embodiment 180, N-(5-chloro-1H-pyrrolo[3,2-b]pyridin-3-yl)-1-(2-methoxyethyl)-7-(trifluoromethyl)-1H-benzo[d]imidazol-2-amine] is at least 10 µM; for `CN(C)Cc1cccc(Oc2ccc3[nH]c(Nc4c[nH]c5ccc(Cl)nc45)nc3c2)c1` [Embodiment 81, N-(5-chloro-1H-pyrrolo[3,2-b]pyridin-3-yl)-5-{3-[(dimethylamino)methyl]phenoxy}-1H-benzo [d]imidazole-2-amine formate] it is 1 to 10 µM.
On to `COCCn1c(Nc2c[nH]c3ccc(Cl)nc23)nc2ccc(Oc3cccnc3)cc21` [Embodiment 207, N-(5-Chloro-1H-pyrrolo[3,2-b]pyridin-3-yl)-1-(2-methylxhetyl)-6-(pyridin-3-yloxy)-1H-benzo[d] imidazol-2-amine], for which the IC50 is at least 10 µM.
